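Protocol summary: plate cells (96-well), add compound at 5 concentrations, incubate 48 h, interpolate endpoints linearly. Here, GI50 denotes the concentration required for 50% inhibition of growth.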 Activity calls are given as the source filed them. No stated cut-off is given here; in the data, active = GI50 up to about 1.1 µM and inactive = higher.
Experiments:
Test in all cases: NCI tumour cell line growth inhibition, 48 h
[1] = system: M14
[2] = system: CAKI-1
[3] = system: T47D
[4] = system: OVCAR-5
[5] = system: BT-549
[6] = system: COLO 205
[7] = system: SN12C
[8] = system: OVCAR-8
[9] = system: HCT-15
[10] = system: K562
[11] = system: MOLT-4
[12] = system: SF-268
[13] = system: NCI-H226
[14] = system: MDA-MB-231
[15] = system: HCT-116
[16] = system: KM12
[17] = system: CCRF-CEM

SMILES | GI50 [1] | GI50 [2] | GI50 [3] | GI50 [4] | GI50 [5] | GI50 [6] | GI50 [7] | GI50 [8] | GI50 [9] [µM] | GI50 [10] | GI50 [11] | GI50 [12] | GI50 [13] | GI50 [14] | GI50 [15] | GI50 [16] | GI50 [17]
CCC1c2[nH]c3ccccc3c2C[C@H]2C(=O)NC(C)C(=O)N12 (some centres not stated) | > 100 µM (inactive) | > 100 µM (inactive) | > 100 µM (inactive) | > 100 µM (inactive) | > 100 µM (inactive) | > 100 µM (inactive) | > 100 µM (inactive) | > 100 µM (inactive) | > 100 | > 100 µM (inactive) | > 100 µM (inactive) | > 100 µM (inactive) | > 100 µM (inactive) | > 100 µM (inactive) | > 100 µM (inactive) | > 100 µM (inactive) | –
O=C1c2ccccc2C(=O)c2c1ccc(C(=O)O)c2-c1ccc2ccccc2c1 | 20.5 µM (inactive) | 29.3 µM (inactive) | 2.22 µM (inactive) | 22.5 µM (inactive) | 26.4 µM (inactive) | 10.4 µM (inactive) | 29.1 µM (inactive) | 33.5 µM (inactive) | 19.6 | 25.9 µM (inactive) | 19.1 µM (inactive) | 28 µM (inactive) | 21.8 µM (inactive) | 23.2 µM (inactive) | 20.7 µM (inactive) | 27 µM (inactive) | 23.3 µM (inactive)
CC(C)[Si](OC/C(=C/COC(C)(C)C)[C@H]1CC=C(C(=O)c2ccccc2N2CN(C)C(=O)N(C)C2)C1)(C(C)C)C(C)C | 12.2 µM (inactive) | 4.29 µM (inactive) | 7.73 µM (inactive) | 14.2 µM (inactive) | 13.4 µM (inactive) | 15.7 µM (inactive) | 12.4 µM (inactive) | 5.55 µM (inactive) | 12.3 | 1.08 µM (active) | 0.366 µM (active) | 6.58 µM (inactive) | 14.6 µM (inactive) | 11.9 µM (inactive) | 2.3 µM (inactive) | 13.7 µM (inactive) | 3.1 µM (inactive)
COc1ccc(/C=N/NC(=O)O)cc1 | > 100 µM (inactive) | > 100 µM (inactive) | > 100 µM (inactive) | > 100 µM (inactive) | > 100 µM (inactive) | > 100 µM (inactive) | > 100 µM (inactive) | – | > 100 | > 100 µM (inactive) | > 100 µM (inactive) | – | – | > 100 µM (inactive) | > 100 µM (inactive) | > 100 µM (inactive) | –
CCOC(=O)C1(Cc2c[nH]c3ccccc23)C(O)CCCN1C(C)=O (configuration not stated) | > 100 µM (inactive) | > 100 µM (inactive) | > 100 µM (inactive) | > 100 µM (inactive) | > 100 µM (inactive) | > 100 µM (inactive) | – | > 100 µM (inactive) | > 100 | > 100 µM (inactive) | > 100 µM (inactive) | > 100 µM (inactive) | > 100 µM (inactive) | > 100 µM (inactive) | > 100 µM (inactive) | > 100 µM (inactive) | > 100 µM (inactive)
NC1CC(=O)c2c(Br)csc21 (configuration not stated) | > 100 µM (inactive) | 55 µM (inactive) | > 100 µM (inactive) | 63.7 µM (inactive) | 33 µM (inactive) | 58.1 µM (inactive) | 27 µM (inactive) | 42.9 µM (inactive) | 35.4 | 50.1 µM (inactive) | 46.6 µM (inactive) | 39.3 µM (inactive) | – | > 100 µM (inactive) | 46.8 µM (inactive) | 32.1 µM (inactive) | 42.7 µM (inactive)
C[C@H]1CC[C@@H]2[C@@H](C)[C@H]3[C@H](C[C@H]4[C@@H]5CC=C6C[C@@H](O)CC[C@]6(C)[C@H]5CC[C@]34C)N2C1 | 74 µM (inactive) | 41.1 µM (inactive) | 86.9 µM (inactive) | > 100 µM (inactive) | 93.1 µM (inactive) | 16.3 µM (inactive) | > 100 µM (inactive) | 32.5 µM (inactive) | > 100 | – | 24.5 µM (inactive) | > 100 µM (inactive) | 14.6 µM (inactive) | 39.4 µM (inactive) | 36.4 µM (inactive) | 30.3 µM (inactive) | 32.5 µM (inactive)
COc1cc(Oc2nc3ccc(C(F)(F)F)cc3nc2-c2ccccc2)cc(OC)c1OC | – | 5.06 µM (inactive) | 54.7 µM (inactive) | > 100 µM (inactive) | 20.2 µM (inactive) | 15.2 µM (inactive) | 37 µM (inactive) | 45.8 µM (inactive) | > 100 | 40.5 µM (inactive) | > 10 µM (inactive) | 22.8 µM (inactive) | 33.3 µM (inactive) | 23 µM (inactive) | 10.8 µM (inactive) | 66.2 µM (inactive) | 48.5 µM (inactive)
Cc1c(-c2ccccc2)c(C#N)c2nnn(-c3cccc(Cl)c3)c(=O)n12 | – | > 100 µM (inactive) | 60.5 µM (inactive) | > 100 µM (inactive) | 88.7 µM (inactive) | 44.4 µM (inactive) | 71.8 µM (inactive) | 53.5 µM (inactive) | 41.1 | 50.5 µM (inactive) | – | 80.5 µM (inactive) | 48.5 µM (inactive) | 25.1 µM (inactive) | 70 µM (inactive) | 55.8 µM (inactive) | 28.1 µM (inactive)
